From paper PMC6266398, “Anti-Acanthamoeba Activity of Brominated Sesquiterpenes from Laurencia johnstonii” (Marine Drugs, 2018)
Values after ≈ are worked out from the molar mass of the structure shown. Values joined by “and” are separate entries in the source; they are usually repeats but may differ in a detail not shown here. Identical values can stand only once. Like-named read-outs stand apart in the source and are kept apart here.

Key:
[1] = test system: Acanthamoeba castellanii Neff; experiment: anti-Acanthamoeba activity, alamarBlue method; assay type: cell-based; conditions: for IC50: Acanthamoeba castellanii, ATCC30010, 96 h, read-out: IC50 against Acanthamoeba castellanii Neff; for anti-Acanthamoeba activity (in words): Acanthamoeba castellanii Neff
Description: The amoeba strain used in this study was the type strain: Acanthamoeba castellanii Neff (ATCC 30010) which was axenically grown in PYG medium (0.75% (w/v) proteose peptone, 0.75% (w/v) yeast extract and 1.5% (w/v) glucose) containing 40 μg/mL of gentamicin (Biochrom AG, Cultek, Granollers, Barcelona, Spain).
To evaluate the biological activity of the fractions and molecules, the anti-Acanthamoeba assays were determined using the alamarBlue® method as previously described. Firstly, Acanthamoeba strain was seeded in triplicate on a 96-well microtiter plates with 50 μL from a stock solution of 10^4 cells/mL. Amoebae were left to adhere to the bottom of the well for 15 min, which was checked using a Leika DMIL inverted microscope (Leika, Wetzlar, Germany). After that, 50 μL of serial dilutions of the molecules were added to the wells (1% DMSO was used to dissolve the highest dose of the compounds with no effects on the parasites). […] Finally, the alamarBlue Reagent® (Life Technologies, Madrid, Spain) was placed into each well at an amount equal to 10% of the final volume. Then, plates containing alamarBlue® were incubated for 96 h at 26 °C with a slight agitation.
(§1) Briefly, the test plates were analyzed, during an interval of time between 24 and 96 h, on an EnSpire® Multimode Plate Reader (Perkin Elmer, Madrid, Spain) using fluorescence, a test wavelength of 570 nm and a reference wavelength of 630 nm. The percentage of the growth inhibition, 50% inhibitory concentration (IC50 or CC50) was calculated by linear regression analysis with 95% confidence limits using Sigma Plot 12.0 statistical analysis software (Systat Software). All experiments were performed three times, and the mean values were also calculated. A paired two-tailed t-test was used for analysis of the data. Values of p < 0.05 were considered significant.

[2] = cytotoxicity test, alamarBlue method; assay type: cell-based; conditions: mouse, 37 °C, read-out: CC50 against murine macrophage J774.A1
Description: The murine macrophages J774A.1 (ATCC# TIB-67) cell line was cultured in RPMI 1640 medium supplemented with 10% fetal bovine serum at 37 °C and 5% CO2 atmosphere, was used for the cytotoxicity assays.
The cytotoxicity assay was carried out using the alamarBlue® method as previously described. Firstly, the macrophages were seeded in triplicate on a 96-well microtiter plates with 50 μL from a stock solution of 2 × 10^5 cells/mL. Macrophages were left to adhere to the bottom of the well for 15 min, which was checked using a Leika DMIL inverted microscope (Leika, Wetzlar, Germany). After that, 50 μL of serial dilutions of the molecules were added to the wells. Finally, the alamarBlue Reagent® (Life Technologies, Madrid, Spain) was placed into each well at an amount equal to 10% of the final volume. Then, plates containing alamarBlue® were incubated for 24 h at 37 °C in presence of CO2 at 5%.
as §1

[3] = Neff strain (ATCC 30010), alamarBlue, 96 h at 26 °C
[4] = J774A.1 macrophages (ATCC TIB-67)

Which results are given for `[H]/N=C(\N/C(=N/[H])NCCCCCCNC(=N)NC(=N)Nc1ccc(Cl)cc1)Nc1ccc(Cl)cc1` [Chlorhexidine, chlorhexidine, reference compound]?
IC50 [1, 3]: 1.53 µg/mL and 3.02 µM; CC50 at 24 h [2, 4]: 6.64 ± 0.35 µg/mL (≈ 13.1 µM)

What does the source list for `C[C@@H](c1ncncc1F)[C@](O)(Cn1cncn1)c1ccc(F)cc1F` [Voriconazole, voriconazole, reference compound]?
IC50 [1, 3]: 0.33 µg/mL and 940 nM; CC50 at 24 h [2, 4]: 2.64 ± 0.27 µg/mL (≈ 7.56 µM)

Which results are given for `Cc1cc(O)c(C2(C)CCC3CC32C)cc1Br` (centres unmarked) [compound 1, laurinterol]?
anti-Acanthamoeba activity (in words) [1]: inactive; IC50 [1, 3]: > 100 µg/mL; CC50 at 24 h [2, 4]: 23.6 ± 2.3 µg/mL (≈ 80.1 µM)

With `C=C1[C@@H](C)CC[C@@]1(C)c1cc(Br)c(C)cc1O` [compound 2, isolaurinterol] as the compound, how does the “anti-Acanthamoeba activity (in words)” value [1] read?
The value was “inactive”.

And the IC50 [1, 3]?
Its IC50 is over 100 µg/mL.

What about the CC50 at 24 h [2, 4] of the same compound?
The CC50 at 24 h was 7.25 ± 0.7 µg/mL (≈ 24.6 µM).

What does the source list for `Cc1cc2c(cc1Br)[C@]1(C)CC[C@H](C)[C@]1(C)O2` [compound 3, aplysin]?
IC50 [1, 3]: > 100 µg/mL; CC50 at 24 h [2, 4]: 324 ± 12 µg/mL (≈ 1100 µM)

With `Cc1ccc([C@]2(C)CC[C@@H](Br)C2(C)C)cc1` [compound 4, α-bromocuparane] as the compound, how does the IC50 [1, 3] read?
Its IC50 is 90.7 µg/mL and 322 µM.

What about the “IC50 against Acanthamoeba castellanii Neff” value [1, 3] of the same compound?
Its value is 90.674 ± 1.529 µg/mL (≈ 322 µM).

And the CC50 at 24 h [2, 4]?
Its CC50 at 24 h is 33 ± 4.2 µg/mL (≈ 117 µM).

Which IC50 [1, 3] does the source give for `Cc1ccc([C@]2(C)CC[C@H](Br)C2(C)C)cc1` [compound 5, α-isobromocuparane] here?
Its IC50 is 64.2 µg/mL and 228 µM.

And the “IC50 against Acanthamoeba castellanii Neff” value [1, 3]?
Its value is 64.251 ± 3.492 µg/mL (≈ 228 µM).

What about the CC50 at 24 h [2, 4] of the same compound?
The CC50 at 24 h was 85.3 ± 10.9 µg/mL (≈ 303 µM).

With `Cc1c(Br)cc2c(c1Br)O[C@@]1(C)[C@@H](C)CC[C@@]21C` [compound 6, 8-Bromoaplysin] as the compound, how does the IC50 [1, 3] read?
The IC50 was 24.6 µg/mL and 65.6 µM.

What about the CC50 at 24 h [2, 4] of the same compound?
The CC50 at 24 h was 32.9 ± 3.12 µg/mL (≈ 87.9 µM).

Which results are given for `Cc1c(Br)cc2c(c1Br)O[C@@]1(C)C[C@@H](Br)CC[C@@]21C` [compound 7, 3α-Bromojohnstane]?
IC50 [1, 3]: 18.8 µg/mL and 41.5 µM; CC50 at 24 h [2, 4]: 62.3 ± 2.59 µg/mL (≈ 138 µM)

Which results are given for `Cc1c(Br)cc2c(c1Br)O[C@@]1(CBr)[C@@H](C)CC[C@@]21C` [compound 8, 8,10-Dibromoisoaplysin]?
IC50 [1]: 22.8 µg/mL and 50.4 µM; CC50 at 24 h [2]: 70.4 ± 3.25 µg/mL (≈ 155 µM)

For `Cc1c(Br)cc2c(c1Br)O[C@@]1(CO)[C@@H](C)CC[C@@]21C` [compound 9, 8,10-Dibromoaplysinol], which IC50 [1, 3] is on record?
The IC50 was 29.9 µg/mL and 76.7 µM.

What about the CC50 at 24 h [2, 4] of the same compound?
Its CC50 at 24 h is 74.9 ± 2.77 µg/mL (≈ 192 µM).
